Test results from ChEMBL document CHEMBL3044640, “Antifeedant, insect growth regulatory and insecticidal effects of Calceolaria talcana (Calceolariaceae) on Drosophila melanogaster and Spodoptera frugiperda” (2013).
Converted amounts (≈) assume the structure as drawn. The source made the active and inactive calls. The rule behind the calls is not given here.

Assays:
Spodoptera frugiperda [1] = test: Insecticidal activity against larvae of Spodoptera frugiperda (fall armyworm) assessed mortality at 20 ppm after 21 days relative to control; type: functional; details: 504 h
Spodoptera frugiperda [2] = test: Antifeedant activity against larvae of Spodoptera frugiperda (fall armyworm) assessed reduction of pupation at 10 ppm after 21 days relative to control; type: functional; parameters: scale not given: the % may be the effect or the level left
Spodoptera frugiperda [3] = test: Antifeedant activity against larvae of Spodoptera frugiperda (fall armyworm) at 5 ug/ml after 12 to 24 hr; type: functional
Spodoptera frugiperda [4] = test: Antifeedant activity against larvae of Spodoptera frugiperda (fall armyworm) assessed reduction of adult emergence at 10 ppm after 21 days relative to control; type: functional; parameters: scale not given: the % may be the effect or the level left
Spodoptera frugiperda [5] = test: Insecticidal activity against larvae of Spodoptera frugiperda (fall armyworm) assessed inhibition of ecdysis at 25 ug/ml, po after 21 days; type: functional, organism-based
Drosophila melanogaster [6] = test: Insecticidal activity against larvae of Drosophila melanogaster assessed as mortality at 20 ug/ml after 72 hr by not choice test; type: functional
Spodoptera frugiperda [7] = test: Antifeedant activity against larvae of Spodoptera frugiperda (fall armyworm) assessed reduction of weight gain at 35 ppm after 21 days relative to control; type: functional; parameters: scale not given: the % may be the effect or the level left
Spodoptera frugiperda [8] = test: Antifeedant activity against larvae of Spodoptera frugiperda (fall armyworm) assessed reduction of adult emergence at 50 ppm after 21 days relative to control; type: functional; parameters: scale not given: the % may be the effect or the level left
Spodoptera frugiperda [9] = test: Insecticidal activity against larvae of Spodoptera frugiperda (fall armyworm) assessed growth index at 10 ppm relative to control; type: functional
Spodoptera frugiperda [10] = test: Antifeedant activity against larvae of Spodoptera frugiperda (fall armyworm) assessed reduction of adult emergence at 35 ppm after 21 days relative to control; type: functional; parameters: scale not given: the % may be the effect or the level left
Spodoptera frugiperda [11] = test: Insecticidal activity against larvae of Spodoptera frugiperda (fall armyworm) assessed growth index at 50 ppm relative to control; type: functional
Drosophila melanogaster [12] = test: Insecticidal activity against larvae of Drosophila melanogaster assessed as mortality at 100 ug/ml after 72 hr by not choice test; type: functional
Drosophila melanogaster [13] = test: Insecticidal activity against larvae of Drosophila melanogaster assessed as mortality after 72 hr by not choice test; type: functional
Spodoptera frugiperda [14] = test: Antifeedant activity against larvae of Spodoptera frugiperda (fall armyworm) at 25 ug/ml after 12 to 24 hr; type: functional
Spodoptera frugiperda [15] = test: Insecticidal activity against larvae of Spodoptera frugiperda (fall armyworm) assessed mortality at 50 ppm after 21 days relative to control; type: functional; details: 504 h
Drosophila melanogaster [16] = test: Antifeedant activity against larvae of Drosophila melanogaster at 100 ug/ml after 12 to 24 hr; type: functional
Spodoptera frugiperda [17] = test: Insecticidal activity against larvae of Spodoptera frugiperda (fall armyworm) assessed mortality at 10 ppm after 21 days relative to control; type: functional; details: 504 h
Spodoptera frugiperda [18] = test: Antifeedant activity against larvae of Spodoptera frugiperda (fall armyworm) assessed reduction of adult emergence at 20 ppm after 21 days relative to control; type: functional; parameters: scale not given: the % may be the effect or the level left
Spodoptera frugiperda [19] = test: Insecticidal activity against larvae of Spodoptera frugiperda (fall armyworm) assessed growth index at 35 ppm relative to control; type: functional
Spodoptera frugiperda [20] = test: Antifeedant activity against larvae of Spodoptera frugiperda (fall armyworm) assessed reduction of pupation at 20 ppm after 21 days relative to control; type: functional; parameters: scale not given: the % may be the effect or the level left
Spodoptera frugiperda [21] = test: Insecticidal activity against larvae of Spodoptera frugiperda (fall armyworm) assessed growth index at 25 ppm; type: functional
Drosophila melanogaster [22] = test: Antifeedant activity against larvae of Drosophila melanogaster at 10 ug/ml after 12 to 24 hr; type: functional
Spodoptera frugiperda [23] = test: Insecticidal activity against larvae of Spodoptera frugiperda (fall armyworm) assessed mortality at 35 ppm after 21 days relative to control; type: functional; details: 504 h
Spodoptera frugiperda [24] = test: Antifeedant activity against larvae of Spodoptera frugiperda (fall armyworm) at 50 ug/ml after 12 to 24 hr; type: functional
Spodoptera frugiperda [25] = test: Antifeedant activity against larvae of Spodoptera frugiperda (fall armyworm) assessed reduction of weight gain at 50 ppm after 21 days relative to control; type: functional; parameters: scale not given: the % may be the effect or the level left
Spodoptera frugiperda [26] = test: Insecticidal activity against larvae of Spodoptera frugiperda (fall armyworm) assessed induction of apolysis at 25 ug/ml, po after 21 days; type: functional, organism-based
Drosophila melanogaster [27] = test: Antifeedant activity against larvae of Drosophila melanogaster at 25 ug/ml after 12 to 24 hr; type: functional
Spodoptera frugiperda [28] = test: Antifeedant activity against larvae of Spodoptera frugiperda (fall armyworm) assessed reduction of weight gain at 10 ppm after 21 days relative to control; type: functional; parameters: scale not given: the % may be the effect or the level left
Spodoptera frugiperda [29] = test: Insecticidal activity against larvae of Spodoptera frugiperda (fall armyworm) assessed growth index at 25 ppm relative to control; type: functional
Spodoptera frugiperda [30] = test: Insecticidal activity against larvae of Spodoptera frugiperda (fall armyworm) assessed growth index at 10 ppm; type: functional
Spodoptera frugiperda [31] = test: Antifeedant activity against larvae of Spodoptera frugiperda (fall armyworm) assessed reduction of pupation at 35 ppm after 21 days relative to control; type: functional; parameters: scale not given: the % may be the effect or the level left
Spodoptera frugiperda [32] = test: Antifeedant activity against larvae of Spodoptera frugiperda (fall armyworm) assessed reduction of pupation at 50 ppm after 21 days relative to control; type: functional; parameters: scale not given: the % may be the effect or the level left
Spodoptera frugiperda [33] = test: Antifeedant activity against larvae of Spodoptera frugiperda (fall armyworm) at 10 ug/ml after 12 to 24 hr; type: functional
Spodoptera frugiperda [34] = test: Antifeedant activity against larvae of Spodoptera frugiperda (fall armyworm) at 100 ug/ml after 12 to 24 hr; type: functional
Drosophila melanogaster [35] = test: Insecticidal activity against larvae of Drosophila melanogaster assessed as mortality at 50 ug/ml after 72 hr by not choice test; type: functional
Spodoptera frugiperda [36] = test: Insecticidal activity against larvae of Spodoptera frugiperda (fall armyworm) assessed growth index at 50 ppm; type: functional
Drosophila melanogaster [37] = test: Antifeedant activity against larvae of Drosophila melanogaster at 50 ug/ml after 12 to 24 hr; type: functional
Spodoptera frugiperda [38] = test: Insecticidal activity against larvae of Spodoptera frugiperda (fall armyworm) assessed induction of prothetely appearance of precocious pupal structures in larvae at 50 ug/ml, po after 48 to 72 hr; type: functional, organism-based
Spodoptera frugiperda [39] = test: Antifeedant activity against larvae of Spodoptera frugiperda (fall armyworm) assessed reduction of weight gain at 20 ppm after 21 days relative to control; type: functional; parameters: scale not given: the % may be the effect or the level left
Spodoptera frugiperda [40] = test: Insecticidal activity against larvae of Spodoptera frugiperda (fall armyworm) assessed growth index at 35 ppm; type: functional
Spodoptera frugiperda [41] = test: Antifeedant activity against larvae of Spodoptera frugiperda (fall armyworm) assessed reduction of pupation at 25 ppm after 21 days relative to control; type: functional; parameters: scale not given: the % may be the effect or the level left
Spodoptera frugiperda [42] = test: Insecticidal activity against larvae of Spodoptera frugiperda (fall armyworm) assessed mortality at 25 ppm after 21 days relative to control; type: functional; details: 504 h
Spodoptera frugiperda [43] = test: Antifeedant activity against larvae of Spodoptera frugiperda (fall armyworm) assessed reduction of weight gain at 25 ppm after 21 days relative to control; type: functional; parameters: scale not given: the % may be the effect or the level left
Spodoptera frugiperda [44] = test: Antifeedant activity against larvae of Spodoptera frugiperda (fall armyworm) assessed reduction of adult emergence at 25 ppm after 21 days relative to control; type: functional; parameters: scale not given: the % may be the effect or the level left

Question: Which results are given for `C[C@@H]1O[C@@H](O[C@@H]2[C@@H](O)[C@H](OCCc3ccc(O)c(O)c3)O[C@H](CO)[C@H]2OC(=O)/C=C/c2ccc(O)c(O)c2)[C@H](O)[C@H](O)[C@H]1O` [ACETOSIDE]?
Answer: mortality at 20 ppm (Spodoptera frugiperda [1]): 100%; Activity (Spodoptera frugiperda [2]): 3.1%; AFI (Spodoptera frugiperda [3]): 78.9%; Activity (Spodoptera frugiperda [4]): 0%; inhibition (Spodoptera frugiperda [5]): Active; mortality at 20 µg/mL (Drosophila melanogaster [6]): 92%; Activity (Spodoptera frugiperda [7]): 0%; Activity (Spodoptera frugiperda [8]): 0%; Ratio (Spodoptera frugiperda [9]): 0.67; Activity (Spodoptera frugiperda [10]): 0%; Ratio (Spodoptera frugiperda [11]): 0.1; mortality at 100 µg/mL (Drosophila melanogaster [12]): 100%; LC50 (Drosophila melanogaster [13]): 8.08 µg/mL (≈ 12.9 µM); AFI (Spodoptera frugiperda [14]): 96.7%; mortality at 50 ppm (Spodoptera frugiperda [15]): 100%; AFI (Drosophila melanogaster [16]): 100%; mortality at 10 ppm (Spodoptera frugiperda [17]): 81.3%; Activity (Spodoptera frugiperda [18]): 0%; Ratio (Spodoptera frugiperda [19]): 0.15; Activity (Spodoptera frugiperda [20]): 3.1%; Growth_index (Spodoptera frugiperda [21]): 0.41; AFI (Drosophila melanogaster [22]): 89%; mortality at 35 ppm (Spodoptera frugiperda [23]): 100%; AFI (Spodoptera frugiperda [24]): 100%; Activity (Spodoptera frugiperda [25]): 0%; Activity (Spodoptera frugiperda [26]): Active; AFI (Drosophila melanogaster [27]): 100%; Activity (Spodoptera frugiperda [28]): 2.15%; Ratio (Spodoptera frugiperda [29]): 0.45; Growth_index (Spodoptera frugiperda [30]): 0.66; Activity (Spodoptera frugiperda [31]): 0%; Activity (Spodoptera frugiperda [32]): 0%; AFI (Spodoptera frugiperda [33]): 88.2%; AFI (Spodoptera frugiperda [34]): 100%; mortality at 50 µg/mL (Drosophila melanogaster [35]): 100%; Growth_index (Spodoptera frugiperda [36]): 0.07; AFI (Drosophila melanogaster [37]): 100%; Activity (Spodoptera frugiperda [38]): Active; Activity (Spodoptera frugiperda [39]): 1.35%; Growth_index (Spodoptera frugiperda [40]): 0.09

Question: How did the Activity (Spodoptera frugiperda [2]) turn out when `CC(=O)O[C@@H]1C[C@H]2C(C)(C)C(=O)C=C[C@]2(C)[C@H]2CC[C@@]3(C)[C@H](c4ccoc4)OC(=O)[C@H]4O[C@]43[C@@]21C` [GEDUNIN] was run?
Answer: 54.2%

Question: And the AFI (Spodoptera frugiperda [3])?
Answer: 68.8%

Question: And the Activity (Spodoptera frugiperda [4])?
Answer: 15%

Question: And the mortality at 20 µg/mL (Drosophila melanogaster [6])?
Answer: 87.1%

Question: And the Activity (Spodoptera frugiperda [41])?
Answer: 41.7%

Question: What about the mortality at 25 ppm (Spodoptera frugiperda [42]) of the same molecule?
Answer: 8.4%

Question: And the Activity (Spodoptera frugiperda [8])?
Answer: 0%

Question: What about the Ratio (Spodoptera frugiperda [9]) of the same molecule?
Answer: 0.71

Question: And the Ratio (Spodoptera frugiperda [11])?
Answer: 0.11

Question: And the mortality at 100 µg/mL (Drosophila melanogaster [12])?
Answer: 100%

Question: And the Activity (Spodoptera frugiperda [43])?
Answer: 1.35%

Question: And the LC50 (Drosophila melanogaster [13])?
Answer: 11.9 µg/mL (≈ 24.7 µM)

Question: And the AFI (Spodoptera frugiperda [14])?
Answer: 85.6%

Question: What about the mortality at 50 ppm (Spodoptera frugiperda [15]) of the same molecule?
Answer: 100%

Question: What about the AFI (Drosophila melanogaster [16]) of the same molecule?
Answer: 100%

Question: And the mortality at 10 ppm (Spodoptera frugiperda [17])?
Answer: 11.6%

Question: And the Activity (Spodoptera frugiperda [44])?
Answer: 13%

Question: What about the Growth_index (Spodoptera frugiperda [21]) of the same molecule?
Answer: 0.51

Question: And the AFI (Drosophila melanogaster [22])?
Answer: 81%

Question: What about the AFI (Spodoptera frugiperda [24]) of the same molecule?
Answer: 89.9%

Question: What about the Activity (Spodoptera frugiperda [25]) of the same molecule?
Answer: 0%

Question: And the AFI (Drosophila melanogaster [27])?
Answer: 98%

Question: And the Activity (Spodoptera frugiperda [28])?
Answer: 2.05%

Question: What about the Ratio (Spodoptera frugiperda [29]) of the same molecule?
Answer: 0.55

Question: And the Growth_index (Spodoptera frugiperda [30])?
Answer: 0.77

Question: What about the Activity (Spodoptera frugiperda [32]) of the same molecule?
Answer: 0%

Question: And the AFI (Spodoptera frugiperda [33])?
Answer: 74.5%

Question: What about the AFI (Spodoptera frugiperda [34]) of the same molecule?
Answer: 100%

Question: And the mortality at 50 µg/mL (Drosophila melanogaster [35])?
Answer: 100%

Question: And the Growth_index (Spodoptera frugiperda [36])?
Answer: 0.1

Question: What about the AFI (Drosophila melanogaster [37]) of the same molecule?
Answer: 100%
